Measured values from ChEMBL document CHEMBL1123372, “6,7-Dichloro-1-(3,4,5-trimethoxybenzyl)-1,2,3,4-tetrahydroisoquinoline . A structurally novel beta-adrenergic receptor blocking agent” (J Med Chem, 1986).

Legend:
Format in all cases: physicochemical
[1] = Compound was evaluated for distribution coefficient; settings: octanol/water
[2] = Compound was evaluated for pKa by titration of the compounds in 1:2 methyl alcohol and water; settings: read-out: pKa app
[3] = Partition coefficient (logP); settings: octanol/water
[4] = Compound was evaluated for pKa by titration of the compounds in 1:2 methyl alcohol and water.; settings: read-out: pKa app

For `CC(C)NCC(O)c1ccc(Cl)c(Cl)c1` (stereo unspecified) [DICHLOROISOPROTERENOL], the logD [1] was 1.26, the pKa [2] was 8.7 and the logP [3] was 2.55.

`COc1cc(C[C@@H]2NCCc3cc(O)c(O)cc32)cc(OC)c1OC` [TRETOQUINOL] gave a pKa [4] of 7.6, a logD [1] of 1.79 and a logP [3] of 2.23.
